Measurements from BindingDB's records for doi:10.7270/Q2N301S8 (D3R/Abbott, 2020).

These compounds were tested against Beta-secretase 1 (Homo sapiens, UniProt P56817) (assay: D3R2027).
From the text: D3R2027

Beta-secretase 1, sequence (P56817 whole entry): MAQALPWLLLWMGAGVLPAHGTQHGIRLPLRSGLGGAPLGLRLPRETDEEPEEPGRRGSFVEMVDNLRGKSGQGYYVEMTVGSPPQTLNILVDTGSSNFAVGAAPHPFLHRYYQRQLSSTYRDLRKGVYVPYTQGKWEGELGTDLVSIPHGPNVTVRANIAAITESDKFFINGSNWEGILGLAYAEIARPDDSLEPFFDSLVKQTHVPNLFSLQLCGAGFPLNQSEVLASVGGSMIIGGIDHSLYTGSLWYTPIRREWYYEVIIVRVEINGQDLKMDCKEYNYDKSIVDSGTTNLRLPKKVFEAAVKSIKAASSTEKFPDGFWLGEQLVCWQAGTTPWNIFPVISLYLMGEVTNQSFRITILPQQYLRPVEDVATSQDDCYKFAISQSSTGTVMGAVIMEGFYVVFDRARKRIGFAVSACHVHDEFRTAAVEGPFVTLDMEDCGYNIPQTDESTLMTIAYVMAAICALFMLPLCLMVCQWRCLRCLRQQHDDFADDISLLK

SMILES	IC50
Cc1cc2cc(n1)NC/C=C\COc1cc(ccc1F)C[C@@H]([C@H](O)CNC1(c3cccc(C(C)(C)C)c3)CC1)NC2=O [BACE_102]	0.1 µM
C[C@@H]1CCCCCCCNc2cccc(c2)C(=O)N[C@H]([C@H](O)CNCc2cc(C(C)(C)C)[nH]n2)C1 [BACE_58]	1.9 µM
CC(C)c1cccc(CNC[C@@H](O)[C@@H]2Cc3cccc(c3)CCCCOc3cncc(c3)C(=O)N2)c1 [BACE_137]	0.48 µM
COCc1cc2cc(n1)NCCCCOCC[C@@H](C)C[C@@H]([C@H](O)CNC1(c3cccc(C(C)(C)C)c3)CC1)NC2=O [BACE_47]	0.0055 µM
CCCCNC(=O)[C@H](C)C[C@H](O)[C@@H]1C[C@H](C)CCc2cccc(c2)CS(=O)(=O)C[C@@H](C)C(=O)N1 [BACE_19]	0.26 µM
CC(=O)COc1cc2cc(c1)C(=O)N[C@H]([C@H](O)CNC1(c3cc(C(C)(C)C)ccn3)CC1)Cc1cccc(c1)CCCCO2 [BACE_133]	0.002 µM
CC(C)c1cccc(CNC[C@@H](O)[C@@H]2C[C@H](C)C/C=C\CCCCNc3cc(cc(Cl)n3)C(=O)N2)c1 [BACE_46]	0.0095 µM
NC[C@@H](O)[C@@H]1Cc2cccc(c2)OC/C=C\CNc2cc(cc(Cl)n2)C(=O)N1 [BACE_104]	40 µM
COCc1cc2cc(c1)C(=O)N[C@H]([C@H](O)CNC1(c3cccc(C(C)C)c3)CC1)Cc1cccc(c1)OCCCO2 [BACE_140]	0.078 µM
CC(C)c1ccnc(CNC[C@@H](O)[C@@H]2Cc3cccc(c3)CCCCOc3cc(cc(N4CCCC4=O)c3)C(=O)N2)c1 [BACE_136]	0.027 µM
C[C@@H]1CCOCCCCNc2cc(ccc2Cl)C(=O)N[C@H]([C@H](O)CNCc2cc(C(C)(C)C)ccn2)C1 [BACE_74]	0.15 µM
COCc1cc2cc(c1)C(=O)N[C@H]([C@H](O)CN[C@H]1CC(C)(C)Oc3ccc(C(C)C)cc31)Cc1cccc(c1)OCCCCN2 [BACE_128]	0.0025 µM
C[C@@H]1CCCCCCCOc2cc(cc(C(=O)N(C)C)c2)C(=O)N[C@H]([C@H](O)CNC2(c3cc(C(C)(C)C)ccn3)CC2)C1 [BACE_83]	0.006 µM
CC(C)(NC[C@@H](O)[C@@H]1Cc2cccc(c2)OCCCCOc2cncc(c2)C(=O)N1)c1cccc(Br)c1 [BACE_138]	0.29 µM
CCCCNC(=O)[C@H](C)C[C@H](O)[C@@H]1C[C@H](C)CCCCCCCCS(=O)(=O)C[C@@H](C)C(=O)N1 [BACE_151]	0.56 µM
CC(C)c1cccc(CNC[C@@H](O)[C@@H]2C[C@H](C)CCCCCCCOc3cc(cc(-c4ncco4)c3)C(=O)N2)c1 [BACE_80]	0.068 µM
CCCNc1cc(COC)cc(C(=O)N[C@@H](Cc2cccc(OC)c2)[C@H](O)CNC2(c3cccc(C(C)C)c3)CC2)c1 [BACE_145]	1.2 µM
CC(C)c1cccc(CNC[C@@H](O)[C@@H]2Cc3cccc(c3)CCCCOc3cc(cc(-c4ncco4)c3)C(=O)N2)c1 [BACE_132]	0.25 µM
CC(C)c1cccc(CNC[C@@H](O)[C@@H]2C[C@H](C)CCCCCCCC[C@@]3(O)CCC[C@H](C3)C(=O)N2)c1 [BACE_86]	1.7 µM
COCc1cc2cc(c1)C(=O)N[C@H]([C@H](O)CNCc1cc(CC(C)(C)C)on1)Cc1cccc(c1)OCCCCN2 [BACE_129]	0.014 µM
C[C@H]1C(=O)N[C@H]([C@H](O)CNCc2cncc(C3CC3)c2)Cc2cccc(c2)CCCCCCC(=O)N1C [BACE_87]	1.1 µM
COCc1cc2cc(c1)C(=O)N[C@H]([C@H](O)[C@H]1CO[C@@H](COC)CN1)Cc1cccc(c1)OCCCCN2 [BACE_13]	8.3 µM
CC(C)c1cccc(CNC[C@@H](O)[C@@H]2C[C@H](C)CCCCCCCOc3cc(cc(N(C)S(C)(=O)=O)c3)C(=O)N2)c1 [BACE_82]	0.011 µM
Cc1cc2cc(n1)NCCCCCCC[C@@H](C)C[C@@H]([C@H](O)CNCc1cccc(C(C)C)c1)NC2=O [BACE_41]	0.029 µM
CCCCNC(=O)[C@H](C)C[C@H](O)[C@@H]1C[C@H](C)CCCCCCC[C@H](NC(=O)c2ccncc2)C(=O)N[C@@H](C)C(=O)N1 [BACE_150]	0.0005 µM
C[C@@H]1CCCCCCCOc2cc(ccn2)C(=O)N[C@H]([C@H](O)CNC(C)(C)c2cc(CC(C)(C)C)on2)C1 [BACE_84]	0.031 µM
